From patent US8242118B2, “Arylsulfonamide derivatives for use as CCR3 antagonists in the treatment of inflammatory and immunological disorders” (Axikin Pharmaceuticals Inc., priority 2001, dated 2012)

Target: T1, Human CCR3 (Homo sapiens, UniProt P51677)
T1 construct: The cloned CCR3 cDNA was constructed with pcDNA3 vector and transfected into a IC562 cell line; expressed in transfected cells
T1 sequence (P51677 1-355): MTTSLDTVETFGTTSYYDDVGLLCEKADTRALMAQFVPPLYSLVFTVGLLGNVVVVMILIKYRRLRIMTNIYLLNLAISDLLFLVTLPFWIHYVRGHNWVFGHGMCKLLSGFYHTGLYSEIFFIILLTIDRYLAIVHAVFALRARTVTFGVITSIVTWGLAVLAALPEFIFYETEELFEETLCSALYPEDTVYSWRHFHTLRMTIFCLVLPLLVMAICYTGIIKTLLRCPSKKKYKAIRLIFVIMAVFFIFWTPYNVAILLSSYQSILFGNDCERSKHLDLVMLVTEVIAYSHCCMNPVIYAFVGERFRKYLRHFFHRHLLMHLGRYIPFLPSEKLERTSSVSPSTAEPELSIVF
Assay: Receptor binding assay (RBA), [125I]-eotaxin
Details: human CCR3-transformed K562 cells, 0.1 nM [125I]-eotaxin; compounds of about 40 to 90% purity; read-out: Activity grade RBA (IC50 class)
In short: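 Butyrate-pretreated (5 mM, 20-24 h) CCR3-transfected K562 cells incubated 1 h at room temperature with compound and 0.1 nM final [125I]-eotaxin in HEPES pH 7.6 buffer; bound radioactivity counted after filtration. Non-specific binding with 500 nM unlabeled eotaxin; IC50 from inhibition curve.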

| SMILES | IC50 [nM] |
| --- | --- |
| O=[N+]([O-])c1ccc(Sc2cc(Cl)cc(Cl)c2)c(S(=O)(=O)N2CCC(N3CCCCC3)CC2)c1 [Example 2-3] | < 1000 |
| Cl.N[C@@H]1CCN(S(=O)(=O)c2cc([N+](=O)[O-])ccc2Sc2cc(Cl)cc(Cl)c2)C1 [Example 2-11] | < 1000 |
| N[C@H]1CCN(S(=O)(=O)c2cc([N+](=O)[O-])ccc2Sc2cc(Cl)cc(Cl)c2)C1 [Example 2-12] | < 1000 |
| CC1CCCCN1CCCNS(=O)(=O)c1cc([N+](=O)[O-])ccc1Sc1cc(Cl)cc(Cl)c1 (stereo not shown) [Example 2-13] | < 1000 |
| O=[N+]([O-])c1ccc(Sc2cc(Cl)cc(Cl)c2)c(S(=O)(=O)N2CCC(N3CCCC3)CC2)c1 [Example 2-22] | < 1000 |
| CN(C)CCN(C)S(=O)(=O)c1cc([N+](=O)[O-])ccc1Sc1cc(Cl)cc(Cl)c1 [Example 2-23] | < 1000 |
| O=[N+]([O-])c1ccc(Sc2cc(Cl)cc(Cl)c2)c(S(=O)(=O)NCCN2CCCCC2)c1 [Example 2-24] | < 1000 |
| O=[N+]([O-])c1ccc(Nc2cc(Cl)cc(Cl)c2)c(S(=O)(=O)N2CCNCC2)c1 [Example 3-2] | < 1000 |
| Cc1ccccc1Nc1ccc([N+](=O)[O-])cc1S(=O)(=O)N1CCNCC1 [Example 3-3] | 1000 to 10000 |
| Cc1cccc(Nc2ccc([N+](=O)[O-])cc2S(=O)(=O)N2CCNCC2)c1 [Example 3-4] | 1000 to 10000 |
| Cc1ccc(Nc2ccc([N+](=O)[O-])cc2S(=O)(=O)N2CCNCC2)cc1 [Example 3-5] | > 10000 |
| O=[N+]([O-])c1ccc(Nc2ccccc2Cl)c(S(=O)(=O)N2CCNCC2)c1 [Example 3-6] | > 10000 |
| Cc1cc(C)cc(Oc2ccc([N+](=O)[O-])cc2S(=O)(=O)NCCN2CCCCC2)c1 [Example 4-2] | < 1000 |
| Cc1cc(C)cc(Oc2ccc([N+](=O)[O-])cc2S(=O)(=O)NCCN2CCOCC2)c1 [Example 4-3] | 1000 to 10000 |
| Cc1cc(C)cc(Oc2ccc([N+](=O)[O-])cc2S(=O)(=O)N2CCN(C)CC2)c1 [Example 4-4] | < 1000 |
| CCN1CCN(S(=O)(=O)c2cc([N+](=O)[O-])ccc2Oc2cc(C)cc(C)c2)CC1 [Example 4-5] | < 1000 |
| Cc1cc(C)cc(Oc2ccc([N+](=O)[O-])cc2S(=O)(=O)N2CCN(C3CCCCC3)CC2)c1 [Example 4-6] | < 1000 |
| Cc1cc(C)cc(Oc2ccc([N+](=O)[O-])cc2S(=O)(=O)N2CCN(c3ccccc3)CC2)c1 [Example 4-7] | > 10000 |
| Cc1ccc(N2CCN(S(=O)(=O)c3cc([N+](=O)[O-])ccc3Oc3cc(C)cc(C)c3)CC2)cc1 [Example 4-8] | > 10000 |
| CCN1CCC(N(CC)S(=O)(=O)c2cc([N+](=O)[O-])ccc2Oc2cc(C)cc(C)c2)C1 (stereo not shown) [Example 4-12] | < 1000 |

| SMILES | IC50 [nM] |
| --- | --- |
| Cc1cc(C)cc(Oc2ccc([N+](=O)[O-])cc2S(=O)(=O)N2CC[C@@H](N(C)C)C2)c1 [Example 4-13] | < 1000 |
| Cc1cc(C)cc(Oc2ccc([N+](=O)[O-])cc2S(=O)(=O)N(C)CCN(C)C)c1 [Example 4-14] | < 1000 |
| Cc1cc(C)cc(Oc2ccc([N+](=O)[O-])cc2S(=O)(=O)N2CCN(C(C)C)CC2)c1 [Example 4-15] | < 1000 |
| CCC(C)N1CCN(S(=O)(=O)c2cc([N+](=O)[O-])ccc2Oc2cc(C)cc(C)c2)CC1 (stereo not shown) [Example 4-16] | < 1000 |
| CCCC(C)N1CCN(S(=O)(=O)c2cc([N+](=O)[O-])ccc2Oc2cc(C)cc(C)c2)CC1 (stereo not shown) [Example 4-17] | < 1000 |
| CCC(CC)N1CCN(S(=O)(=O)c2cc([N+](=O)[O-])ccc2Oc2cc(C)cc(C)c2)CC1 [Example 4-18] | < 1000 |
| Cc1cc(C)cc(Oc2ccc([N+](=O)[O-])cc2S(=O)(=O)N2CCN(C3CCCC3)CC2)c1 [Example 4-19] | < 1000 |
| CN(C)CCN(C)S(=O)(=O)c1cc([N+](=O)[O-])ccc1Oc1cc(Cl)cc(Cl)c1 [Example 4-20] | < 1000 |
| CCN(CC)C1CCN(S(=O)(=O)c2cc([N+](=O)[O-])ccc2Oc2cc(Cl)cc(Cl)c2)C1 (stereo not shown) [Example 4-21] | < 1000 |
| O=[N+]([O-])c1ccc(Oc2cc(Cl)cc(Cl)c2)c(S(=O)(=O)N2CCC[C@H]2CN2CCCC2)c1 [Example 4-22] | < 1000 |
| CN1CCC(N(C)S(=O)(=O)c2cc([N+](=O)[O-])ccc2Oc2cc(Cl)cc(Cl)c2)C1 (stereo not shown) [Example 4-23] | < 1000 |
| Cc1cc(C)cc(Oc2ccc([N+](=O)[O-])cc2S(=O)(=O)N2CCC(N(C)C)CC2)c1.Cl [Example 4-24] | < 1000 |
| Cc1cc(C)cc(Oc2ccc([N+](=O)[O-])cc2S(=O)(=O)N2CCN(CC3CCCO3)CC2)c1 (stereo not shown) [Example 4-26] | < 1000 |
| O=[N+]([O-])c1ccc(Oc2cc(Cl)cc(Cl)c2)c(S(=O)(=O)N2CCN(CC3CCCO3)CC2)c1 (stereo not shown) [Example 4-27] | < 1000 |
| O=[N+]([O-])c1ccc(Oc2cc(Cl)cc(Cl)c2)c(S(=O)(=O)N2CCC(N3CCCCC3)CC2)c1 [Example 4-29] | < 1000 |
| Cc1cc(C)cc(Oc2ccc([N+](=O)[O-])cc2S(=O)(=O)N2CCN(CCC(F)(F)F)CC2)c1 [Example 4-33] | < 1000 |
| O=[N+]([O-])c1ccc(Oc2cc(Cl)cc(Cl)c2)c(S(=O)(=O)N2CCN(CCC(F)(F)F)CC2)c1 [Example 4-34] | < 1000 |
| COCCCN1CCN(S(=O)(=O)c2cc([N+](=O)[O-])ccc2Oc2cc(Cl)cc(Cl)c2)CC1 [Example 4-36] | < 1000 |
| O=[N+]([O-])c1ccc(Oc2cc(Cl)cc(Cl)c2)c(S(=O)(=O)N2CCC(N3CCCC3)C2)c1 (stereo not shown) [Example 4-38] | < 1000 |
| Cc1cc(C)cc(Oc2ccc(N)cc2S(=O)(=O)N2CCNCC2)c1.O=C(O)C(F)(F)F [Example 5-3] | > 10000 |

| SMILES | IC50 [nM] |
| --- | --- |
| CCN1CCN(S(=O)(=O)c2cc(Cl)ccc2Oc2cc(C)cc(C)c2)CC1 [Example 5-4] | < 1000 |
| CCN1CCN(S(=O)(=O)c2cc(I)ccc2Oc2cc(C)cc(C)c2)CC1 [Example 5-5] | < 1000 |
| Cc1cc(C)cc(Oc2ccc(I)cc2S(=O)(=O)N2CCNCC2)c1.Cl [Example 5-6] | < 1000 |
| Cc1cc(C)cc(Oc2cc(C)c(N)cc2S(=O)(=O)N2CCNCC2)c1.Cl.Cl [Example 5-7] | > 10000 |
| Cc1cc(C)cc(Oc2ccc(F)cc2S(=O)(=O)N2CCNCC2)c1 [Example 6-3] | < 1000 |
| CC(=O)Nc1ccc(Oc2cc(C)cc(C)c2)c(S(=O)(=O)N2CCNCC2)c1 [Example 7-2] | > 10000 |
| Cc1cc(C)cc(Oc2ccc(NC(=O)C(C)(C)C)cc2S(=O)(=O)N2CCNCC2)c1 [Example 7-3] | > 10000 |
| Cc1cc(C)cc(Oc2ccc(NC(=O)CC(C)C)cc2S(=O)(=O)N2CCNCC2)c1 [Example 7-4] | > 10000 |
| Cc1cc(C)cc(Oc2ccc(NC(=O)c3ccccc3)cc2S(=O)(=O)N2CCNCC2)c1 [Example 7-5] | > 10000 |
| Cc1ccc(C(=O)Nc2ccc(Oc3cc(C)cc(C)c3)c(S(=O)(=O)N3CCNCC3)c2)cc1 [Example 7-6] | > 10000 |
| Cc1cc(C)cc(Oc2ccc(NC(=O)c3cccc4ccccc34)cc2S(=O)(=O)N2CCNCC2)c1 [Example 7-7] | > 10000 |
| Cc1cc(C)cc(Oc2ccc(NC(=O)CCc3ccccc3)cc2S(=O)(=O)N2CCNCC2)c1 [Example 7-8] | > 10000 |
| Cc1cc(C)cc(Oc2ccc(NC(=O)c3cccs3)cc2S(=O)(=O)N2CCNCC2)c1 [Example 7-9] | > 10000 |
| Cc1cc(C)cc(Oc2ccc(S(=O)(=O)N(C)C)cc2S(=O)(=O)N2CCNCC2)c1.Cl [Example 10-2] | 1000 to 10000 |
| N#Cc1ccc(Oc2cc(Cl)cc(Cl)c2)c(S(=O)(=O)N2CCCC3CN(Cc4ccccc4)CC32)c1 (stereo not shown) [Example 13-2] | 1000 to 10000 |
| N#Cc1ccc(Oc2cc(Cl)cc(Cl)c2)c(S(=O)(=O)N2C[C@H]3C[C@@H]2CN3)c1 [Example 13-4] | < 1000 |
| N#Cc1ccc(Oc2cc(Cl)cc(Cl)c2)c(S(=O)(=O)N2C[C@@H]3CCCN[C@@H]3C2)c1 [Example 13-5] | 1000 to 10000 |
| COCCCN1CCN(S(=O)(=O)c2cc(C#N)ccc2Oc2cc(Cl)cc(Cl)c2)CC1 [Example 13-7] | < 1000 |
